Results from patent EP2698155A1, “Pharmaceutical unit dosage form comprising 4-phenylbutyric acid” (priority 2012, dated 2014).

Tested on: adenocarcinoma of the prostate
Test: Treatment of human patients with prostate cancer (case reports)
Format: in vivo
Conditions: general statement
Method: Diseases that can be beneficially influenced by the present dosage form include in particular benign prostate hyperplasy, cancer, leukemias, cystic fibrosis, AIDS, kidney and liver diseases, thalassemia and urea cycle disorders. For example, the treatment of an adenocarcinoma of the prostate can be carried out by administering twice daily, e.g. in the morning and evening, a pharmaceutical tablet formulation containing 250 mg of sodium 4-phenylbutyrate. […] Treatment may be continued for several month or years until a satisfactory effect is observed or the patient is total free of the disease.
Following are descriptions of treatments and test results obtained from human patients.
Because of progressive bone pain they underwent bilateral orchiectomy in February 1996. They became free of pain until November 1998 when they again suffered bone pain mainly in their back. They were than treated orally twice daily with 250 mg of sodium phenylbutyrate retard tablets according to Example 1. Four weeks later they were free of pain. They stayed on this medication until June 2001 without any other symptoms of the prostate carcinoma. The PSA and the alkaline phosphatase were always within normal limits.
They stay now in complete unmaintained remission for 12 months.
This patient presented in March 1997 with a pathological fracture of the 8th thoracic vertebra caused by metastatic destruction. […]

O=C([O-])CCCc1ccccc1.[Na+] [sodium 4-phenylbutyrate]
therapeutic effect (pain) (adenocarcinoma of the prostate, tablet with 250 mg twice daily, after treatment of about one month): pain disappears
side effects (over a long period of treatment): no side effects
